In one series the test system is p62/LC3. The experiment in a line: Ratio between p62 and LC3 expression levels. The note with it: 0.1 µM (100 nM), 24 h, SY5Y-APP^wt cells. The class given is cell-based, human. From the text:
Compounds from both series were selected to first determine the potential relationship between the repression of Aβ1–x production and the increased expression of LC3 and p62. […] We then also considered the ratio between the p62 and LC3 expression levels.
Figure 3 Effect of compounds 24, 33, 34, 57, 65, 67, 70, and 71 on the autophagic flux in SY5Y-APP^wt cells. […] Cell lysates were immunolabeled with the following antibodies: p62 (a), LC3 (b), and β-actin. Statistical significance was set at * p < 0.05, ** p < […], *[…], **** p < 0.0001, and ns as not significant.

Another series has as its system LC3. The series is described as follows: Autophagic flux: LC3-I lipidation into LC3-II by Western blot. The series is classed as cell-based. The note with it: Homo sapiens, 24 h, 0.1 µM (100 nM), SY5Y-APP^wt cells, vs control. From the text:
(§1) Previous work dedicated to compounds of family C [22] has underlined the effect of our compounds on autophagic flux and the lysosomal degradation pathways. More precisely, the role of the amino side chains and their number was highlighted. Therefore, we assessed whether the activity of compounds involved the modulation of lysosomal activities toward the accumulation of APP-CTFs and AICD. Thus, we studied the effect of a selection of compounds on the autophagic flux, more particularly, we evaluated the effect of compounds 24, 33, 34, 57, 65, 67, 70, and 71 on two markers associated with autophagy: p62 and LC3-I lipidation into LC3-II. To the previous selection of efficient compounds decreasing Aβ1–x production and increasing CTFα and AICD, we added compound 65 with no cytotoxicity at 100 µM. As a comparison, we also selected compound 57 with a hydroxymethyl substituent as a control. In addition to CQ, bafilomycin A, a well-known inhibitor of autophagic flux, was used as a control. Treatment with compounds 67 and 71 induced an increase in p62 expression by 2.5 and 4-fold, respectively, compared to the control condition (Figure 3). […] An increase in the two markers was also observed with compound 57, but to a smaller extent (1.7-fold for p62 and 2-fold for LC3-I/LC3-II).
(§2) The human neuroblastoma cell line SY5Y-APP^695WT was maintained in Dulbecco’s modified Eagle medium (DMEM, high glucose, pyruvate—GIBCO, Life Technologies, Carlsbad, CA, USA) supplemented with 10% fetal bovine serum, 2 mM L-glutamine, 1 mM non-essential amino acids and penicillin/streptomycin (GIBCO, Life Technologies, Carlsbad, CA, USA) at 37 °C in a 5% CO2 humidified incubator [36]. For compound treatment, a 10 mM stock solution was diluted in freshly supplemented DMEM medium to obtain the precise final concentration of the drug. Cells were plated at a density of 5 × 10^5 cells per well into 12-well plates and cultured with 1 mL supplemented DMEM cell medium for 24 h before compound exposure. The following day, the cell medium was replaced with fresh medium containing the compounds diluted at the indicated concentrations. Cells were treated for 24 h. At the end of the treatments, the cell medium was collected and kept at −80 °C until use, cells were rinsed once with PBS and extracted in 100 µL of Laemmli buffer (10 mM Tris, 20% glycerol, and 2% sodium dodecyl sulfate) using a cell-scraper. The cell lysate was further sonicated (30 pulses of 0.5 s, 60 Hz) for 5 min. Total protein concentration was determined using the Pierce BCA Protein Assay Kit (Thermo Scientific, Waltham, MA, USA) according to the manufacturer’s instructions. Samples were stored at −80 °C until analysis.
(§3) Cell protein lysates were prepared for Western blot analysis by diluting the sample with 1 volume of NuPAGE® lithium dodecyl sulfate (LDS) 2X sample buffer supplemented with 20% NuPAGE® sample reducing agents (Invitrogen). Samples were heated for 10 min at 100 °C. Ten µg of total proteins per well were loaded onto precast 4–12% Criterion XT Bis-Tris polyacrylamide gels (Bio-Rad) and electrophoresis was achieved after applying a tension of 150 V for 90 min using a Criterion electrophoresis cell with the NuPAGE® MOPS SDS running buffer (1X). Proteins were transferred to a nitrocellulose membrane of […] pore size (G&E Healthcare, Madison, WI, USA) using the Criterion blotting system and applying a tension of 100 V for 45 min. To resolve proteins of low molecular weights such as carboxy-terminal fragments of APP, 12% Criterion XT Bis-Tris polyacrylamide gels (Bio-Rad, Hercules, CA, USA) were used, and electrophoresis was performed for 70 min at 150 V in a NuPAGE® MES SDS running buffer (1X). Proteins were transferred to a nitrocellulose membrane of 0.2 µm pore size (G&E Healthcare, Madison, WI, USA) at 100 V for 40 min. Molecular weight calibration was achieved using molecular weight markers (Novex and Magic Marks, Life Technologies, Carlsbad, CA, USA). […]
Background: A western blot detects proteins with antibodies after separation by electrophoresis.

Another series has as its system p62. The series is described as follows: Autophagic flux: p62 expression by Western blot. The series is classed as cell-based, human. The following applies: Homo sapiens, 24 h, 0.1 µM (100 nM), SY5Y-APP^wt cells, vs control.
Excerpt: as §1, §2, §3

A short description of the next series: in vitro. The class given is cell-based, human. The note with it: human. The protocol:
(§4) Cytotoxicity was measured using 3-(4,5-dimethylthiazol-2-yl)-5-(3-carboxymethoxyphenyl)-2-(4-sulfophenyl)-2H-tetrazolium (MTS) tests. SY5Y-APP^695WT cells were plated in a 96-well plate at 3 × 10^4 cells per well and allowed to attach for 24 h. Cells were then incubated for 72 h with 100 µL of DMEM with 10% SVF containing (or not) the defined concentration of drugs. Cytotoxicity was determined by using the colorimetric MTS assay (Cell Titer 96® Aqueous One Solution Cell Proliferation Assay-MTS Promega, Madison, WI, USA) according to the manufacturer’s instructions. Absorbance was read at 490 nm.

For a further series, the system named is Aβ1–42 peptide secretion. The experiment in a line: Aβ1–42 secretion in cell medium by ELISA. The class given is cell-based, human. The following applies: SY5Y-APP^WT cells, 24 h treatment, mean ± SD of at least three experiments in triplicate. On the procedure: (§5) The final and selected intermediate compounds were evaluated for their ability to modulate APP processing in the SH-SY5Y human neuroblastoma cell line stably expressing the neuronal isoform of human wild-type APP^695 (SY5Y-APP^WT), a well-established model for the study of APP metabolism. APP carboxy-terminal fragments (αCTFs and AICD) levels were assessed by Western blotting (WB). The effect of the reference and test compounds on αCTFs and AICD is expressed as the intensity of corresponding WB bands. The concentration of compounds able to increase 20-times αCTFs and AICD (C20) when compared to the control condition was calculated. Selected compounds were also evaluated for their ability to modulate the secretion of soluble APP fragments (sAPPα and sAPPβ). Aβ1–x levels (Aβ1–40 and Aβ1–42) after treatment with the reference and tested compounds were measured in the cell media by ELISA (Table 1). […] Selected hit compounds were then further evaluated for their ability to decrease the level of N-truncated Aβ peptides (Aβx–38, Aβx–40, and Aβx–42).
as §2
(§6) Conditioned media of SY5Y-APP^695WT collected at the end of treatments were centrifuged at 1000× g for 5 min to eliminate cell debris.
(§7) Aβ1–40/Aβ1–42 peptides, Aβx–38/Aβx–40/Aβx–42, and sAPPα/sAPPβ concentrations in pg/mL were determined, respectively, using amyloid-beta 40 and 42 Human ELISA Kits (Invitrogen), the V-PLEX Plus Aβ Peptide Panel 1 (4G8) Kit (Meso Scale Diagnostics, MSD R©, Rockville, MD, USA), and the sAPPα/sAPPβ Multiplex Kit (Meso Scale Diagnostics, MSD R©, Rockville, MD, USA) according to the manufacturer’s instructions.

The test system of series [1] is αCTF (APP carboxy-terminal fragment). The series is described as follows: αCTF level by Western blotting in SY5Y-APP^WT cells. The class given is cell-based, human. The note with it: concentration increasing αCTF 20-fold vs untreated control, SY5Y-APP^WT cells, read-out: αCTF (C20). The protocol:
as §5, §2
as §3, with “USA). Protein transfer and quality were determined by a reversible Ponceau Red coloration (0.2% xylidine Ponceau Red and 3% trichloroacetic acid).” for “USA).”

Series [2] concerns AICD (APP intracellular domain). The experiment in a line: AICD level by Western blotting in SY5Y-APP^WT cells. The series is classed as cell-based, human. The note with it: concentration increasing AICD 20-fold vs untreated control, read-out: AICD (C20). The protocol:
as §5, §2
as §3, with “USA). Protein transfer and quality were determined by a reversible Ponceau Red coloration (0.2% xylidine Ponceau Red and 3% trichloroacetic acid).” for “USA).”

In the next series the test system is Aβ1–40 peptide secretion. The series is described as follows: Aβ1–40 secretion in cell medium by ELISA. The following applies: SY5Y-APP^WT cells, 24 h treatment, mean ± SD of at least three experiments in triplicate, read-out: Aβ1–40 IC50. The class given is cell-based, human. The protocol: as §5, §2, §6, §7
For orientation: An ELISA detects its analyte on a solid surface through an enzyme-linked reagent.

Another series concerns SY5Y-APP^695WT cells. The experiment in a line: in vitro. The class given is cell-based, human. The protocol:
as §4

Read-outs that look alike come from different tables or passages of the source. A value given as a limit tells only on which side of the number the result lay.

Usually fold induction stands for the signal under treatment as a multiple of the control signal. A higher fold induction goes with a strong induction. With `CO/C1=C\C(C)=C\[C@@H](C)[C@@H](O)[C@@H](C)C/C(C)=C/C=C/[C@H](OC)[C@@H]([C@@H](C)[C@@H](O)[C@H](C)[C@@]2(O)C[C@@H](O)[C@H](C)[C@@H](C(C)C)O2)OC1=O` [Baf A1, bafilomycin A1, reference compound], the p62/LC3 in the series on p62/LC3 came out at 0.31. The fold induction at 0.1 µM was found to be 4.68 in the series on LC3 and 1.48 with p62.
Broadly, the CC50 is the concentration at which the toxic effect on the cells reaches its halfway point. The low end stands for greater toxicity to the cells, the high end for lower toxicity to the cells. The IC50 is the point on the concentration scale where inhibition reaches its midpoint. In “in vitro”, `Cc1cn(-c2cccc(CN(C)CCCN(C)C)c2)nc1-c1ccc(CN(C)C)cc1` [Compound 63, [(4-{1-[3-({[3-(Dimethylamino)propyl](methyl)amino}methyl)phenyl]-4-methyl-1H-pyrazol-3-yl}phenyl)methyl]dimethylamine] came in with a half-maximal cytotoxic concentration (CC50) at 72 h of 13 µM. Further, the IC50 with Aβ1–42 peptide secretion (Homo sapiens) came to 2.7 ± 0.2 µM; in the series on Aβ1–40 peptide secretion (Homo sapiens) it was 2 ± 0.2 µM. The EC (20-fold increase) stood at 1.2 µM in [1] (Homo sapiens) and 1.5 µM in series [2] (Homo sapiens).
For `Cc1cn(-c2cccc(CN(C)C)c2)nc1-c1cccc(CN(C)C)c1` [Compound 64, 1-[3-[1-[3-(Dimethylaminomethyl)phenyl]-4-methyl-pyrazol-3-yl]phenyl]-N,N-dimethylmethanamine] the same measures were > 100 µM, 4.1 ± 1.6 µM, 3.8 ± 0.2 µM, 3.8 µM and 4.9 µM.
For `Cc1cn(-c2cccc(CN(C)CCCN(C)C)c2)nc1-c1cccc(CN(C)C)c1` [Compound 66, N′-[[3-[3-[3-(Dimethylaminomethyl)phenyl]-4-methyl-pyrazol-1-yl]phenyl]methyl]-N,N,N’-trimethyl-propane-1,3-diamine], in that order: 47 µM, 2.5 ± 1 µM, 2.2 ± 0.3 µM, 2.2 µM and 2.4 µM.
For `Cc1cn(-c2cccc(CN3CCN(C)CC3)c2)nc1-c1ccc(CN(C)CCCN(C)C)cc1` [Compound 68, [3-(Dimethylamino)propyl](methyl){[4-(4-methyl-1-{3-[(4-methylpiperazin-1-yl)methyl]phenyl}-1H-pyrazol-3-yl)phenyl]methyl}amine] the same measures were 6 µM, 1.6 ± 0.1 µM, 1.2 ± 0.1 µM, 1 µM and 1 µM.
In the case of `Cc1cn(-c2cccc(CN(C)CCCN(C)C)c2)nc1-c1cccc(CN(C)CCCN(C)C)c1` [Compound 72, N′-[[3-[1-[3-[[3-(Dimethylamino)propyl-methyl-amino]methyl]phenyl]-4-methyl-pyrazol-3-yl]phenyl]methyl]-N,N,N′-trimethyl-propane-1,3-diamine], in “in vitro”, the CC50 at 72 h is 26 µM. Also, the IC50 with Aβ1–42 peptide secretion (Homo sapiens) turned out to be 3.3 ± 0.1 µM; with Aβ1–40 peptide secretion (Homo sapiens), 2.6 ± 0.2 µM. The figures for the EC (20-fold increase) in series [1] (Homo sapiens) and in series [2] (Homo sapiens) were 0.6 µM and 0.8 µM, respectively.
As for “N′-[[4-[4-(Dimethylaminomethyl)-3-[4-[3-(dimethylamino)propyl]phenyl] Pyrazol-1-yl]phenyl]methyl]-N,N,N′-trimethyl-propane-1,3-diamine [Compound 32]”, the CC50 with SY5Y-APP^695WT cells is > 100 µM. Also, the IC50 in the series on Aβ1–42 peptide secretion was 6.1 ± 0.3 µM; in the series on Aβ1–40 peptide secretion, 4.2 ± 0.1 µM. Besides, the EC (20-fold increase) was 1.1 µM in series [1] and 1.8 µM in series [2].

The values are drawn from article PMC9658513, “Discovery of Compounds That Selectively Repress the Amyloidogenic Processing of the Amyloid Precursor Protein: Design, Synthesis and Pharmacological Evaluation of Diphenylpyrazoles” (International Journal of Molecular Sciences, 2022).
